{
  "source": "paper PMC6026317",
  "about": "“Molecular elements in FGF19 and FGF21 defining KLB/FGFR activity and specificity” (Molecular Metabolism, 2018)",
  "key": {"293/KLB cells": {"system": "293/KLB cells", "assay": "Agonist pERK AlphaLISA assay in 293/KLB cells", "format": "cell-based, human", "settings": "10 min at 37° C, n = 3", "description": "(§1) 293T HEK cells expressing KLB (or KL) or Hep3B cells were plated to 5–6 x 10^4 cells/well density in 96-well cell culture plate coated with poly-D-Lysine (Corning). The cells were serum starved for four hours in 0.1% BSA fraction V (ThermoFisher) containing media prior to treatment with protein and/or an antagonist peptide at the mentioned concentrations for 10 min at 37° C. For the antagonist assays, a chosen fixed dose within the range of 0.8–30 nM (depending on the cell type) of FGF21 or FGF19 stimulant was added to all the wells. BaF3 cells expressing human KLB/FGFR1c or human KLB/FGFR4-1c chimera were seeded at 5 × 10^5 cells/well density in 96-well cell culture plate and serum-starved overnight. FGF21/19 analogs were diluted in 0.02% Tween-20 containing RPMI1640 medium and the cells were treated for 15 min at 37° C. Following the respective cell treatments, the cells were lysed (with lysis buffer provided in the kit) for 10 min at room temperature on a shaker and the lysate was mixed with reaction mixture (consisting of reaction buffer, activation buffer, acceptor and donor beads provided in the kit). Phosphorylated ERK1/2 (pERK) levels were subsequently recorded by EnSpire Alpha or Envision Multilabel plate reader (Perkin Elmer). The cell assays corresponding to 293/KLB or Hep3B cells were carried out with AlphaLISA SureFire Ultra pERK1/2 (Thr 202/Tyr204) kit (Perkin Elmer), and BaF3 cells were done using AlphaScreen pERK1/2 (Thr202/Tyr204) kit (Perkin Elmer).\nAll cellular phosphorylation data were analyzed using 3-parameter non-linear regression curve in GraphPad Prism 7. Graphs are represented as relative maximal (100%) response of the positive control. All other test analog signals were adjusted accordingly as % values. […] Each peptide and protein analog was tested in triplicates in three independent experiments (n = 3), and normalized graphs plotted are expressed as mean ± SD unless otherwise noted."}, "Hep3B cells": {"system": "Hep3B cells", "assay": "Agonist pERK AlphaLISA assay in Hep3B cells", "format": "cell-based, human", "settings": "10 min at 37° C, n = 3", "description": "as §1, with “Following the respective cell treatments, the cells were lysed (with lysis buffer provided in the kit) for 10 min at room temperature on a shaker and the lysate was mixed with reaction mixture (consisting of reaction buffer, activation buffer, acceptor and donor beads provided in the kit).” left out, “The cell assays corresponding to 293/KLB or Hep3B cells were carried out with AlphaLISA SureFire Ultra pERK1/2 (Thr 202/Tyr204) kit (Perkin Elmer), and BaF3 cells were done using AlphaScreen pERK1/2 (Thr202/Tyr204) kit (Perkin Elmer).” left out\nAll cellular phosphorylation data were analyzed using 3-parameter non-linear regression curve in GraphPad Prism 7. […] Each peptide and protein analog was tested in triplicates in three independent experiments (n = 3), and normalized graphs plotted are expressed as mean ± SD unless otherwise noted."}, "human FGFR1/KLB": {"system": "human FGFR1/KLB", "assay": "Agonist pERK AlphaScreen assay in BaF3 cells, FGFR1/KLB", "format": "cell-based", "settings": "BaF3 cells co-expressing KLB and FGFR1; 15 min at 37° C; n = 3", "description": "(§2) For generating receptor specific BaF3 cell line, human FGFR1c cDNA was cloned into pMXs-IRES-Puro vector (Cell Biolabs) to generate the expression plasmid pMX-FGFR1c-IRES-Puro. Human FGFR4 sequence was re-engineered to enhance signaling by constructing chimeric cDNA encoding the extracellular region of FGFR4 fused to the intracellular region and tyrosine kinase domain of FGFR1c, and the chimeric sequence was cloned into pMX-IRES-Puro vector to generate the expression plasmid pMX-chimeric FGFR4-1c-IRES-Puro. Human KLB cDNA was cloned into pMXs-IRES-Neo vector (Cell Biolabs) to generate expression plasmid pMX-KLB-IRES-Neo. BaF3 cells were transfected with pMX-FGFR1c-IRES-Puro and pMX- FGFR4-1c chimera-IRES-Puro expression plasmids respectively by electroporation (Xcell machine, Bio-Rad, 950 μF, 370V). Cells were selected with media containing 1 μg/ml Puromycin for 10–12 days. […]\n(§3) 293T HEK cells expressing KLB (or KL) or Hep3B cells were plated to 5–6 x 10^4 cells/well density in 96-well cell culture plate coated with poly-D-Lysine (Corning). […] Phosphorylated ERK1/2 (pERK) levels were subsequently recorded by EnSpire Alpha or Envision Multilabel plate reader (Perkin Elmer). […]\n(§4) All cellular phosphorylation data were analyzed using 3-parameter non-linear regression curve in GraphPad Prism 7. […]"}, "[1]": {"system": "human FGFR4-1c chimera/KLB", "assay": "Agonist pERK AlphaScreen assay in BaF3 cells, FGFR4-1c chimera/KLB", "format": "cell-based", "settings": "BaF3 cells co-expressing KLB and FGFR4-1c chimera; 15 min at 37° C; n = 3", "description": "as §2, §3, §4"}},
  "data": [
    {"substance": "FGF19,A^194: FGF19 analog with single C-terminal lysine substitution to alanine", "values": [
      {"measurement": "pERK agonist activity, in words", "setting": "293/KLB cells", "result": "nearly tenfold more active than FGF19"},
      {"measurement": "pERK agonist activity, in words", "setting": "Hep3B cells", "result": "comparable"},
      {"measurement": "pERK agonist activity, in words", "setting": "human FGFR1/KLB", "result": "enhanced signaling at the FGFR1/KLB complex by approximately ten-fold"},
      {"measurement": "pERK agonist activity, in words", "setting": "[1]", "result": "no change in bioactivity"}
    ]}
  ]
}
